Reference: US10316056B2, “Chemical compounds and use thereof for improving muscular quality” (BIOPHYTIS, priority 2014, dated 2019)
Read-outs that look alike come from different tables or passages of the source. Values belong to the compound of their own block, whether it stands above or below them.

Experiments:
[1] = tested on: myostatin gene expression in C2C12 cells; assay: Inhibition of myostatin expression in C2C12 cells (qPCR); assay type: cell-based; details: Mus musculus, percentage myostatin gene expression in cells in contact with the compounds related to control cells, C2C12, 6 h
In short: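 C2C12 myoblasts differentiated to myotubes for 5 days in 2% serum, then treated 6 h with compounds in serum-free, low-glucose (1 g/l) DMEM; IGF-1 100 ng/ml as reference. Myostatin mRNA quantified by RT-qPCR, expressed relative to untreated control as R=2^-ΔΔCt.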

[2] = tested on: S6 kinase (S6K1) phosphorylation in C2C12 cells; assay: Phosphorylation of the S6 kinase in C2C12 cells (ELISA pS6K T389), protein synthesis; assay type: cell-based, mouse; details: C2C12, 2 h; for activity at 10 µM / activity: Mus musculus; for activity at 10 µM: read-out: Protein synthesis (percentage increase in S6K phosphorylation in muscle cells); for activity: read-out: S6K1 phosphorylation level
Protocol: After several experiments in which the C2C12 cells differentiated into myotubes were incubated in the presence of IGF-1 or 20E for 2 h 30 or 6 h, two screening tests were developed. Thus, the phosphorylation of the S6 protein kinase and the expression of the myostatin gene were studied in order to determine their modulation by a growth hormone or an ecdysone and to characterize these modulations from a statistical point of view.
The C2C12 myoblast cells (ATCC CRL-1772) are seeded into 6-well plates at a density of 170 000 cells per well and cultured in a DMEM medium containing glucose in a proportion of 4.5 g/l and supplemented with fetal calf serum (10%) and with antibiotics (penicillin and streptomycin). Forty-eight hours later, the myoblasts are induced to differentiate by partial serum depletion (2% instead of 10%) for 5 days. The cells are then placed in a medium which is glucose-depleted (DMEM containing 1 g/l of glucose) and serum-free in the presence of the test molecules or of the references (100 ng/ml IGF-1 or 10 μM 20E) for 2 h. At the end of the experiment, the cells are lysed in a commercial lysis buffer (Invitrogen FNN0011) supplemented with a commercial mixture of anti-proteases (Roche 05056489001). After centrifugation, the cytoplasmic fraction containing the soluble proteins is kept and the protein concentration is determined using a commercial kit (Biorad 500-0114), the principle of which is composed of assaying by the Lowry method. The assaying of the S6 kinase phosphorylation is carried out using a commercial ELISA (Enzyme Linked ImmunoSorbent Assay) kit (Cell signaling 7063). Briefly, 50 μg of protein lysate are deposited in the wells of a 96-well microplate and incubated overnight at 4° C. with the solution of antigen specific for the pS6 kinase threonine 389 antibody. The binding of the antigen to the bottom of the wells is done electrostatically. The solution of antibody to be assayed (pS6K T389) is then incubated at 37° C. in the wells for 2 hours. The antibodies bind specifically to the antigen. The wells are then washed with washing buffer in order to remove the antigen-specific primary antibodies to be assayed which are in excess. The third step consists in binding the detection antibody. The solution of detection antibodies is incubated at 37° C. in the wells for 1 hour. The wells are then washed in order to remove the excess detection antibodies. It should be noted that the detection antibodies are coupled to an enzyme which, in the presence of its substrate, converts it into a reaction product that can be detected and measured by virtue of the appearance of a coloration. […] The appearance of a blue coloration in the substrate indicates the presence of the antibody to be assayed. In order to prevent any saturation phenomenon, a stop solution (generally containing […]) is added and brings about a change in coloration, which goes from blue to yellow. The strength thereof is proportional to the amount of enzyme present and thus to the concentration of antibody sought. The strength of the signal is measured using spectrophotometry at a wavelength of 450 nm.

[3] = rat, in vivo, po
Protocol: (§5) The pharmacokinetics of the compounds were evaluated orally using male Wistar rats (Charles River). […] The novel compounds according to the invention were administered at a dose of 10 mg/kg of body weight in the form of a mixture of 4 to 6 products. After administration, the blood was sampled from the tail at t=0.25 h, 0.5 h, 1 h, 3 h, 6 h and 8 h. The blood samples were centrifuged and the plasmas removed.

[4] = in vivo; details: male, Wistar, rat, po, 10 mg/kg
Protocol: as §5

[5] = tested on: Soleus muscle of C57BL/6 mice subjected to a high-fat diet; assay: Mice subjected to a high-fat diet: weight and amount of proteins of the Soleus muscle; assay type: in vivo, C57BL/6J mice; details: 5 mg/kg orally, high-fat diet for 6 weeks, compared with the control group
Protocol: (§1) The 20E as comparative compound and the compounds according to the invention (Nos. 51 and 93) were administered orally, at a dose of 5 mg/kg of body weight, to 12-week-old C57BL/6J mice subjected to a high-fat diet for 6 weeks. The effect of the compounds on the weight and the amount of proteins of the Soleus muscle and also the transcripts of genes involved in myogenesis were evaluated.
The amount of proteins is determined by first lysing the muscles sampled in a 0.1N NaOH solution with the FastPrep technique. The proteins are quantified by means of a colorimetric assay derived from the Lowry method.
(§2) The in vivo study is carried out by evaluating the effect of 20E as comparative compound and of the molecules according to the invention (Nos. 51 and 93) administered orally, at a dose of 5 mg/kg of body weight, to C57BL/6 mice subjected to a high-fat diet for 6 weeks. The effect of the molecules on the weight and the amount of proteins of the Soleus muscle and also the transcripts of genes involved in myogenesis were evaluated.

[6] = tested on: myostatin transcript; assay: Mice subjected to a high-fat diet: myostatin transcript of the Soleus muscle; assay type: in vivo, C57BL/6J mice; details: 5 mg/kg orally; high-fat diet for 6 weeks; FIG. 4
Protocol: as §1
In order to carry out the gene expression analysis, the muscle tissues were homogenized in a Trizol solution (500 μl), and the RNAs were extracted and purified using the phenol/chloroform method. An amount of […] of RNA was used as template for the synthesis of the first cDNA strand using oligo (dT)s as primers and the AMV reverse transcriptase enzyme as described by the supplier (Applied Biosystems 4368814). The q-PCRs were then carried out using a 7900HT machine equipped with a rapid system for real-time detection by PCR (Applied Biosystems) and the standard qPCR program (1 cycle of 95° C. for 15 min, 40 cycles of 95° C. for 15 s and 60° C. for 1 min, a 60-95° C. melt curve for the Sybergreen probes). The experiments are carried out in a Sybergreen SYBR master mix (Applied Biosystems) containing the 100 ng cDNA samples and a set of primers which bind to the two different exons and at a final concentration of 200 nM.
(§3) The relative differences in gene expression between treatments are expressed as increase or decrease in the number of cycle times [Ct] compared with the control group, the [Ct] value of each gene having been standardized with the beta-actin gene.
as §2

[7] = tested on: MyoD transcripts; assay: Mice subjected to a high-fat diet: MyoD transcripts of the Soleus muscle; assay type: in vivo, C57BL/6J mice; details: 5 mg/kg orally; high-fat diet for 6 weeks; FIG. 5A
Protocol: as §1
(§4) Myogenesis, which is the process for forming muscle tissues, is controlled by several myogenic transcription factors which act as end effectors of the signaling cascade and produce transcripts involved in the various stages of development. The roles of the transcription factors have been described in various journals (Sabourin and Rudnicki 2000 and Le Grand and Rudnicki 2007). The Pax7 protein (Paired-box protein 7) maintains a population of satellite cells in quiescence and, with Myf5 (Myogenic factor 5), plays a role in the expansion of activated myoblasts. The MyoD protein (Myoblast Determination protein) appears to determine the differentiation potential of activated myoblasts, and cooperates with myogenin and the MEF2 (Myocyte Enhancer Factor 2) protein to control and bring about differentiation. Finally, MRF4 (Muscle-specific Regulatory Factor 4) is required for hypertrophy, even though it probably plays other roles. […]
as §3, §2

[8] = tested on: Myf5 gene transcripts; assay: Mice subjected to a high-fat diet: Myf5 transcripts; assay type: in vivo, C57BL/6J mice; details: 5 mg/kg orally; high-fat diet for 6 weeks
Protocol: as §1, §4, §3, §2

[9] = tested on: myogenin transcripts; assay: Mice subjected to a high-fat diet: myogenin transcripts of the Soleus muscle; assay type: in vivo, C57BL/6J mice; details: 5 mg/kg orally; high-fat diet for 6 weeks; FIG. 5B
Protocol: as §1, §4, §3, §2

[10] = test compounds and 20E reference (10 μM)

Structure (SMILES): COCCN(C)C(C)[C@H]1CC[C@@]2(O)C3=CC(=O)[C@@H]4C[C@@H](O)[C@@H](O)C[C@]4(C)C3CC[C@]12C (stereo partly drawn) [Compound 76, (2S,3R,5R,10R,13R,14S,17S)-2,3,14-trihydroxy-17-[1-(2-methoxyethyl(methyl)amino)ethyl]-10,13-dimethyl-2,3,4,5,9,11,12,15,16,17-decahydro-1H-cyclopenta[a]phenanthren-6-one]
mrna remaining at 10 µM [1]: < 70%
activity at 10 µM [2]: 110 to 129%
activity [2, 10]: ~120%

Structure (SMILES): CC(NCc1cccnc1)[C@H]1CC[C@@]2(O)C3=CC(=O)[C@@H]4C[C@@H](O)[C@@H](O)C[C@]4(C)C3CC[C@]12C (stereo partly drawn) [Compound 43, (2S,3R,5R,10R,13R,14S,17S)-2,3,14-trihydroxy-10,13-dimethyl-17-[1-(3-pyridylmethylamino)ethyl]-2,3,4,5,9,11,12,15,16,17-decahydro-1H-cyclopenta[a]phenanthren-6-one]
mrna remaining at 10 µM [1]: < 70%
activity at 10 µM [2]: 110 to 129%
activity [2, 10]: ~120%

Structure (SMILES): CCN(CC)CCO/N=C(/C)[C@H]1CC[C@@]2(O)C3=CC(=O)[C@@H]4C[C@@H](O)[C@@H](O)C[C@]4(C)C3CC[C@]12C (stereo partly drawn) [Compound 32, (2S,3R,5R,10R,13R,14S,17S)-17-(N-(2-diethylaminoethoxy)-C-methylcarbonimidoyl)-2,3,14-trihydroxy-10,13-dimethyl-2,3,4,5,9,11,12,15,16,17-decahydro-1H-cyclopenta[a]phenanthren-6-one]
mrna remaining at 10 µM [1]: < 70%
activity at 10 µM [2]: 110 to 129%
activity [2, 10]: ~120%

Structure (SMILES): CC(NCC1CCCO1)[C@H]1CC[C@@]2(O)C3=CC(=O)[C@@H]4C[C@@H](O)[C@@H](O)C[C@]4(C)C3CC[C@]12C (stereo partly drawn) [Compound 46, (2S,3R,5R,10R,13R,14S,17S)-2,3,14-trihydroxy-10,13-dimethyl-17-[1-(tetrahydrofuran-2-ylmethylamino)ethyl]-2,3,4,5,9,11,12,15,16,17-decahydro-1H-cyclopenta[a]phenanthren-6-one]
mrna remaining at 10 µM [1]: < 70%
activity at 10 µM [2]: 110 to 129%
activity [2, 10]: ~120%
Cexp (coefficient of exposure) ([3]; male, Wistar): 2.6
plasma exposure compared with 20E [3]: better plasma exposure
AUC [4]: 202 ng·h/mL
Cmax [4]: 40 ng/mL
Tmax [4]: 15 min

Structure (SMILES): C=CCCC(=O)N(CCOC)C(C)[C@H]1CC[C@@]2(O)C3=CC(=O)[C@@H]4C[C@@H](O)[C@@H](O)C[C@]4(C)C3CC[C@]12C (stereo partly drawn) [Compound 52, N-(2-methoxyethyl)-N-[1-[(2S,3R,5R,10R,13R,14S,17S)-2,3,14-trihydroxy-10,13-dimethyl-6-oxo-2,3,4,5,9,11,12,15,16,17-decahydro-1H-cyclopenta[a]phenanthren-17-yl]ethyl]pent-4-enamide]
mrna remaining at 10 µM [1]: < 70%
activity at 10 µM [2]: 110 to 129%
activity [2, 10]: ~120%

Cexp (coefficient of exposure) [3]: 1.0
AUC ([3]; 50 mg/kg): 382 ng·h/mL
Cmax ([3]; 50 mg/kg): 68 ng/mL
Tmax ([3]; 50 mg/kg): 30 min
Structure (SMILES): CC(C)(O)CC[C@@H](O)[C@](C)(O)[C@H]1CC[C@@]2(O)C3=CC(=O)[C@@H]4C[C@@H](O)[C@@H](O)C[C@]4(C)[C@H]3CC[C@]12C [Compound 20E, 20-hydroxyecdysone, reference compound]
S6K1 phosphorylation level [2, 10]: 120%
weight of the Soleus muscle ([5]; FIG. 3A): increases
amount of proteins of the Soleus muscle ([5]; FIG. 3B): increases
myostatin expression in the Soleus muscle [6]: comparably inhibit
transcripts of the MyoD gene [7]: increase
transcripts of the Myf5 gene [8]: increase
transcript of the myogenin gene [9]: increase

Structure (SMILES): C/C(=N/OCCN1CCOCC1)[C@H]1CC[C@@]2(O)C3=CC(=O)[C@@H]4C[C@@H](O)[C@@H](O)C[C@]4(C)C3CC[C@]12C (stereo partly drawn) [Compound 31, (2S,3R,5R,10R,13R,14S,17S)-2,3,14-trihydroxy-10,13-dimethyl-17-(C-methyl-N-(2-morpholinoethoxy)carbonimidoyl)-2,3,4,5,9,11,12,15,16,17-decahydro-1H-cyclopenta[a]phenanthren-6-one]
mrna remaining at 10 µM [1]: < 70%
Cexp (coefficient of exposure) ([3]; male, Wistar): 3.7
plasma exposure compared with 20E [3]: better plasma exposure
AUC [4]: 281 ng·h/mL
Cmax [4]: 105 ng/mL
Tmax [4]: 15 min

Structure (SMILES): CCOC(=O)CSCC(=O)[C@H]1CC[C@@]2(O)C3=CC(=O)[C@@H]4C[C@@H](O)[C@@H](O)C[C@]4(C)C3CC[C@]12C (stereo partly drawn) [Compound 92, Ethyl 2-[2-oxo-2-[(2S,3R,5R,10R,13R,14S,17S)-2,3,14-trihydroxy-10,13-dimethyl-6-oxo-2,3,4,5,9,11,12,15,16,17-decahydro-1H-cyclopenta[a]phenanthren-17-yl]ethyl]sulfanylacetate]
mrna remaining at 10 µM [1]: < 70%
activity at 10 µM [2]: 110 to 129%
activity [2, 10]: ~120%
